Test results taken from PMC12935787, “Clinical pharmacokinetics and pharmacometabolomics of Andrographis paniculata capsules: Bridging drug disposition and metabolic response to precision medicine” (Naunyn-Schmiedeberg's Archives of Pharmacology, 2025).
Like-named read-outs stand apart in the source and are kept apart here.

Columns and labels:
[1] = set-up: method as in Songvut et al. [2023b]; conditions: AP dose corresponding to 60 mg of andrographolide; ref Songvut et al. [2023b]; cited from earlier work
[2] = Clinical pharmacokinetics, plasma LC-MS/MS after single oral dose of AP capsules; type: in vivo, human (healthy volunteers); conditions: human, plasma; for concentration at 0 h / concentration at 0.5 h / concentration at 1 h / concentration at 1.5 h / concentration at 2 h / concentration at 2.5 h / concentration at 3 h / concentration at 3.5 h / concentration at 4 h / concentration at 5 h / concentration at 6 h / concentration at 8 h / concentration at 10 h / concentration at 12 h / concentration at 24 h: oral, 2000 mg, 2000 mg AP capsules; for concentration at 0.5 h: 0.50 h; for concentration at 1.5 h: 1.50 h; for concentration at 2.5 h: 2.50 h; for concentration at 3.5 h: 3.50 h
Method: The protocol was published (Tee et al. [2022]).
Seven calibrators ranging from 1, 2, 5,10, 20, 50, and 100 ng mL^−1 were prepared. Frozen plasma was thawed, vortexed-mixes, and processed via protein precipitation: 50 µL plasma plus 100 µL 0.01% ammonia in methanol were vortexed (20 s), centrifuged (14800 rpm, 5 min) and […] supernatant was transferred to 2 mL vials with inserts. LC–MS/MS injection volume: 10 µL. The separation used a Phenomenex Gemini-NX C18 column (150 × 2.1 mm, 5 μm) with 0.01% ammonia (A) and acetonitrile/methanol (1:1, B) as mobile phases (0.30 mL min^-1). The gradient program: 40% B (0 min), linear increase to 95% B (3 min), hold to 5 min, sharp decrease to 10% B (5.01 min), hold to 7 min, return to 40% B (7.01 min), and re-equilibration to 10 min. Mass detection employed an LCMS-8060NX triple quadrupole with heated ESI in negative mode, monitoring specific MRM transitions: andrographolide (349.3 → 331.2/287.1), 14-deoxyandrographolide (331.2 → 108.0/301.1), and neoandrographolide (479.1 → 317.4/161.1).
Pharmacokinetic parameters were determined from plasma samples (5 subjects, 15 time points) analyzed via LC–MS/MS (Shimadzu 8060NX). […] Specific MRM transitions for andrographolide, 14-deoxyandrographolide, and neoandrographolide in plasma samples of subjects are illustrated in Figure S3. […] The dose-dependent concentration–time curves, pharmacokinetics profiles (Fig. 2a, b and c) and comprehensive individual PK data (Table S4) provide a foundation for developing personalized AP dosing regimens, supporting its precision medicine potential.

[3] = S1, read-out: Plasma concentration
[4] = S2, read-out: Plasma concentration
[5] = S3, read-out: Plasma concentration
[6] = S4, read-out: Plasma concentration
[7] = S5, read-out: Plasma concentration
[8] = mean n=5, read-out: Mean concentration
[9] = 2000 mg AP capsules oral, fasting, n=5

concentration at 0 h [2, 3]: 0 µg/mL | concentration at 0.5 h [2, 3]: 4.67 ng/mL | concentration at 1 h [2, 3]: 2.88 ng/mL | concentration at 1.5 h [2, 3]: 7.71 ng/mL | concentration at 2 h [2, 3]: 5.18 ng/mL | concentration at 2.5 h [2, 3]: 3.32 ng/mL | concentration at 3 h [2, 3]: 6.06 ng/mL | concentration at 3.5 h [2, 3]: 3.78 ng/mL | concentration at 4 h [2, 3]: 0 ng/mL | concentration at 5 h [2, 3]: 0 ng/mL | concentration at 6 h [2, 3]: 0 ng/mL | concentration at 8 h [2, 3]: 0 ng/mL | concentration at 10 h [2, 3]: 0 µg/mL | concentration at 12 h [2, 3]: 0 µg/mL | concentration at 24 h [2, 3]: 0 µg/mL | concentration at 0 h [2, 4]: 0 µg/mL | concentration at 0.5 h [2, 4]: 0 ng/mL | concentration at 1 h [2, 4]: 4.36 ng/mL | concentration at 1.5 h [2, 4]: 4.51 ng/mL | concentration at 2 h [2, 4]: 3.4 ng/mL | concentration at 2.5 h [2, 4]: 2.73 ng/mL | concentration at 3 h [2, 4]: 4.33 ng/mL | concentration at 3.5 h [2, 4]: 0 ng/mL | concentration at 4 h [2, 4]: 0 ng/mL | concentration at 5 h [2, 4]: 0 ng/mL | concentration at 6 h [2, 4]: 0 ng/mL | concentration at 8 h [2, 4]: 0 ng/mL | concentration at 10 h [2, 4]: 0 µg/mL | concentration at 12 h [2, 4]: 0 µg/mL | concentration at 24 h [2, 4]: 0 µg/mL | concentration at 0 h [2, 5]: 0 µg/mL | concentration at 0.5 h [2, 5]: 23.4 ng/mL | concentration at 1 h [2, 5]: 10.1 ng/mL | concentration at 1.5 h [2, 5]: 6.33 ng/mL | concentration at 2 h [2, 5]: 3.06 ng/mL | concentration at 2.5 h [2, 5]: 2.52 ng/mL | concentration at 3 h [2, 5]: 1.77 ng/mL | concentration at 3.5 h [2, 5]: 0 ng/mL | concentration at 4 h [2, 5]: 0 ng/mL | concentration at 5 h [2, 5]: 2.59 ng/mL | concentration at 6 h [2, 5]: 0 ng/mL | concentration at 8 h [2, 5]: 0 ng/mL | concentration at 10 h [2, 5]: 0 µg/mL | concentration at 12 h [2, 5]: 0 µg/mL | concentration at 24 h [2, 5]: 0 µg/mL | concentration at 0 h [2, 6]: 0 µg/mL | concentration at 0.5 h [2, 6]: 1.49 ng/mL | concentration at 1 h [2, 6]: 10 ng/mL | concentration at 1.5 h [2, 6]: 13.2 ng/mL | concentration at 2 h [2, 6]: 4.7 ng/mL | concentration at 2.5 h [2, 6]: 5.46 ng/mL | concentration at 3 h [2, 6]: 1.92 ng/mL | concentration at 3.5 h [2, 6]: 2.29 ng/mL | concentration at 4 h [2, 6]: 1.69 ng/mL | concentration at 5 h [2, 6]: 1.8 ng/mL | concentration at 6 h [2, 6]: 2.01 ng/mL | concentration at 8 h [2, 6]: 2.47 ng/mL | concentration at 10 h [2, 6]: 0 µg/mL | concentration at 12 h [2, 6]: 0 µg/mL | concentration at 24 h [2, 6]: 0 µg/mL | concentration at 0 h [2, 7]: 0 µg/mL | concentration at 0.5 h [2, 7]: 3.04 ng/mL | concentration at 1 h [2, 7]: 2.29 ng/mL | concentration at 1.5 h [2, 7]: 3.39 ng/mL | concentration at 2 h [2, 7]: 4.99 ng/mL | concentration at 2.5 h [2, 7]: 3.66 ng/mL | concentration at 3 h [2, 7]: 3.28 ng/mL | concentration at 3.5 h [2, 7]: 2.09 ng/mL | concentration at 4 h [2, 7]: 1.36 ng/mL | concentration at 5 h [2, 7]: 2.4 ng/mL | concentration at 6 h [2, 7]: 1.7 ng/mL | concentration at 8 h [2, 7]: 0 ng/mL | concentration at 10 h [2, 7]: 0 µg/mL | concentration at 12 h [2, 7]: 0 µg/mL | concentration at 24 h [2, 7]: 0 µg/mL | concentration at 0 h [2, 8]: 0 µg/mL | concentration at 0.5 h [2, 8]: 6.52 ng/mL | concentration at 1 h [2, 8]: 5.94 ng/mL | concentration at 1.5 h [2, 8]: 7.02 ng/mL | concentration at 2 h [2, 8]: 4.27 ng/mL | concentration at 2.5 h [2, 8]: 3.54 ng/mL | concentration at 3 h [2, 8]: 3.47 ng/mL | concentration at 3.5 h [2, 8]: 1.63 ng/mL | concentration at 4 h [2, 8]: 0.61 ng/mL | concentration at 5 h [2, 8]: 1.36 ng/mL | concentration at 6 h [2, 8]: 0.74 ng/mL | concentration at 8 h [2, 8]: 0.49 ng/mL | concentration at 10 h [2, 8]: 0 µg/mL | concentration at 12 h [2, 8]: 0 µg/mL | concentration at 24 h [2, 8]: 0 µg/mL | AUC(0-inf) [2, 9]: 0.0212 µg·h/mL | AUC(0-t) [2, 9]: 0.0196 µg·h/mL | Cmax [2, 9]: 7.02 ng/mL | half-life [2, 9]: 2.18 h
SMILES: C=C1CC[C@@H]2[C@](C)(CO)[C@H](O)CC[C@@]2(C)[C@@H]1CCC1=CCOC1=O [14-deoxyandrographolide]
Cmax, previously reported [1]: 4.2 ± 3.4 ng/mL | Tmax, previously reported [1]: 1.0 h
